Source: ChEMBL document CHEMBL1201862, “PubChem BioAssay data set” (2004)
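In this assay, cells in 96-well plates receive the compound at five concentrations for 48 hours. Endpoints are linearly interpolated between the surrounding concentrations. GI50: concentration for 50% inhibition of growth.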 Calls of active or inactive are those of the source. No stated cut-off is given here; in the data, active = GI50 up to about 1.1 µM and inactive = higher.

Columns and labels:
Assay in all cases: NCI tumour cell line growth inhibition, 48 h
[1] = test system: UACC-62
[2] = test system: Malme-3M
[3] = test system: HOP-62
[4] = test system: OVCAR-4
[5] = test system: SK-MEL-28
[6] = test system: SF-295
[7] = test system: LOX IMVI
[8] = test system: ACHN
[9] = test system: A549
[10] = test system: SF-268
[11] = test system: OVCAR-8
[12] = test system: HT-29
[13] = test system: HCT-116
[14] = test system: A498
[15] = test system: SK-MEL-5
[16] = test system: NCI-H460

Measured: GI50

Nc1nc[n+](Cc2ccccc2)c2ncn(Cc3ccccc3)c12
inactive: [1] 32.4 µM | [2] 84.3 µM | [3] 32.6 µM | [4] > 100 µM | [5] > 100 µM | [6] 63.8 µM | [7] > 100 µM | [8] > 100 µM | [9] > 100 µM | [10] > 100 µM | [11] > 100 µM | [12] 31.6 µM | [13] 37.9 µM | [14] 55.1 µM | [15] 97.5 µM | [16] > 100 µM

O=C(N/N=C(/c1nc2ccc([N+](=O)[O-])cc2[nH]c1=O)C(O)c1ccc([N+](=O)[O-])cc1)c1ccncc1 (stereo not given)
inactive: [1] > 100 µM | [2] > 100 µM | [3] 69.7 µM | [4] > 100 µM | [5] > 100 µM | [6] > 100 µM | [7] > 100 µM | [8] 39.7 µM | [9] 69 µM | [10] > 100 µM | [11] > 100 µM | [12] > 100 µM | [13] > 100 µM | [14] > 100 µM | [15] 36.3 µM | [16] > 100 µM

CO[C@@H]1C=C[C@@]23c4cc5c(cc4C(=O)O[C@H]2CN(C)[C@H]3C1)OCO5
inactive: [1] > 100 µM | [4] > 100 µM | [5] > 100 µM | [6] > 100 µM | [7] > 100 µM | [8] > 100 µM | [9] > 100 µM | [10] > 100 µM | [11] > 100 µM | [12] > 100 µM | [13] > 100 µM | [14] > 100 µM | [15] > 100 µM | [16] > 100 µM

C=C(Br)C(C)(Br)CCC(Br)C(C)(C)Br (stereo not given)
inactive: [1] 21 µM | [2] 28.1 µM | [3] 14.7 µM | [4] 39.4 µM | [5] 19.1 µM | [6] 26.5 µM | [7] 16.5 µM | [8] 57.7 µM | [9] 80.2 µM | [10] 30.2 µM | [11] 17.5 µM | [12] 38.8 µM | [13] 21.2 µM | [15] 33.5 µM | [16] 33.7 µM

O=C1/C(=C\c2ccccc2)c2ccccc2N1/N=C\c1ccccc1
inactive: [1] 90.4 µM | [2] > 100 µM | [3] > 100 µM | [4] > 100 µM | [5] > 100 µM | [6] > 100 µM | [7] > 100 µM | [8] > 100 µM | [9] 76.2 µM | [10] > 100 µM | [11] > 100 µM | [12] 25.1 µM | [13] 77.4 µM | [14] > 100 µM | [15] 48.4 µM | [16] > 100 µM

C[N+](C)(C)CC(=O)N/N=C(/Cc1nc2ccc(Cl)cc2nc1O)C1=NS(=O)(=O)c2cc(S(N)(=O)=O)c(Cl)cc2N1
inactive: [1] > 100 µM | [2] > 100 µM | [3] > 100 µM | [4] > 100 µM | [5] > 100 µM | [6] > 100 µM | [8] > 100 µM | [9] > 100 µM | [10] > 100 µM | [11] > 100 µM | [12] > 100 µM | [13] > 100 µM | [14] > 100 µM | [15] > 100 µM | [16] > 100 µM

O=C1OC2C=CC1C1(CCOC1=O)C2 (stereo not given)
inactive: [1] 28.8 µM | [2] > 100 µM | [3] > 100 µM | [4] > 100 µM | [5] > 100 µM | [7] > 100 µM | [8] > 100 µM | [9] > 100 µM | [10] > 100 µM | [11] > 100 µM | [13] > 100 µM | [14] > 100 µM | [15] > 100 µM | [16] > 100 µM

COc1ccccc1/C=C(\NC(=O)c1ccccc1)c1nc2ccc(Cl)cc2[nH]1
inactive: [1] 17.5 µM | [2] 47.8 µM | [4] 22.9 µM | [5] 27.1 µM | [7] 37.2 µM | [8] 21.5 µM | [9] 19.6 µM | [10] 30.3 µM | [11] 22.8 µM | [12] 30.8 µM | [13] 29 µM | [14] 25.4 µM | [15] 17.3 µM | [16] 33.8 µM

COc1ccccc1OCC(COC(=O)Nc1ccc(C)cc1)OC(=O)Nc1ccc(C)cc1 (stereo not given)
inactive: [1] 15.3 µM | [2] 17.4 µM | [3] 38.5 µM | [5] 23.7 µM | [6] 21.9 µM | [7] 15.8 µM | [8] 21.8 µM | [9] 57.1 µM | [10] 19.5 µM | [11] 17 µM | [12] 19.2 µM | [13] 17.5 µM | [14] > 100 µM | [15] 20.7 µM | [16] 16.7 µM
